Biological target: S-adenosylmethionine synthase isoform type-2 (Homo sapiens, UniProt P31153)
Experiment: Allosteric inhibition of MAT2A (unknown origin) expressed in Escherichia coli BL21(DE3) assessed as reduction in S-adenosyl-methionine formation using methionine as substrate in presence of ATP by ELISA

Chain of S-adenosylmethionine synthase isoform type-2 (P31153 whole entry, canonical isoform): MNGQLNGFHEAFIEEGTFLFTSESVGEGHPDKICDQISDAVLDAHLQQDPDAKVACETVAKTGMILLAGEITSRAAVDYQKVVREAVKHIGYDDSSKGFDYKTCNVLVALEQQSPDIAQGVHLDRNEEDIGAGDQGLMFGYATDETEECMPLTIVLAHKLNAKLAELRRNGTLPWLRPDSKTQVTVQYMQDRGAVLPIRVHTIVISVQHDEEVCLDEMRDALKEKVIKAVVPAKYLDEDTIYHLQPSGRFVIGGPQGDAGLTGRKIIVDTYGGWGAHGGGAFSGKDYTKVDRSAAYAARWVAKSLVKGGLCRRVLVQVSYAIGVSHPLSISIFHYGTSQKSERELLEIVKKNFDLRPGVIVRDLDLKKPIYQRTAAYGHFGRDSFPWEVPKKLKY

IC50: 283 nM
SMILES: COc1ccc2c(=O)c(C)c(-c3ccnc(-c4ccc(OC(F)(F)F)cc4)c3)[nH]c2c1
